In patent US20240335431A1, “1-H-PYRROLO[2,3-c]PYRIDINE COMPOUNDS” (Acerta Pharma B.V., priority 2023, published 2024):
Where two headings read alike, the source gives them in different places.

Columns and labels:
MV4;11 cells = assay: Proliferation assay, MV4;11 (CellTiter-Glo, 7 days); type: cell-based, human; settings: read-out: MV-4-11 IC50
How it was run: (§1)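 Cells were seeded at line-specific low densities for linear growth, exposed to 3.16-fold serial compound dilutions at 0.1% DMSO, and incubated 7 days at 37 °C, 5% CO2. Viability was read by CellTiter-Glo 2.0 luminescence; IC50 came from one-site fits of % inhibition, normalized between DMSO-treated cells (100%) and a day-0 plate (0%).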

HEL cells = assay: Proliferation assay, HEL control cell line (CellTiter-Glo, 7 days); type: cell-based, human
How it was run: as §1

muscarinic M2 receptor = muscarinic M2 receptor (Homo sapiens (Human), UniProt P08172); assay: Muscarinic M2 receptor binding assay (assay 1); settings: [3H]AF-DX 384 2 nM, Cheng Prusoff
Chain of muscarinic M2 receptor (P08172 whole entry): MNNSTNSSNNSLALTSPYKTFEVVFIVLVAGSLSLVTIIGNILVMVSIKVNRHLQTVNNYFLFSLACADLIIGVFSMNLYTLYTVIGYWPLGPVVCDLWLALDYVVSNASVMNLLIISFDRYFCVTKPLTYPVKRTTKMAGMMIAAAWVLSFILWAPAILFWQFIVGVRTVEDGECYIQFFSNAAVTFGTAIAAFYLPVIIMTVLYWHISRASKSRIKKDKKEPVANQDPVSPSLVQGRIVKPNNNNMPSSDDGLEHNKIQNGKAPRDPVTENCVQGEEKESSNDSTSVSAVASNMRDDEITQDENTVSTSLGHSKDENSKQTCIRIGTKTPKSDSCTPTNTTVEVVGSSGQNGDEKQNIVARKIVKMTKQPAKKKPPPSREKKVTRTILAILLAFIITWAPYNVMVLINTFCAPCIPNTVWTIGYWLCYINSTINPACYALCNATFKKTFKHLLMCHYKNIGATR
Protocol: Cell membrane homogenates (60 μg protein) were incubated for 60 minutes at 22° C. with 2 nM [3H]AF-DX 384 in the absence or presence of the test compound in a buffer containing 50 mM Tris-HCl (pH 7.4), 120 mM NaCl, 5 mM KCl, 5 mM MgCl2, and 1 mM EDTA. Nonspecific binding was determined in the presence of 1 μM atropine. Following incubation, the samples were filtered rapidly under vacuum through glass fiber filters (GF/B, Packard) presoaked with 0.3% PEI and rinsed several times with ice-cold 50 mM Tris-HCl using a 96-sample cell harvester (Unifilter, Packard). The filters were dried then counted for radioactivity in a scintillation counter (Topcount, Packard) using a scintillation cocktail (Microscint 0, Packard). The results were expressed as a percent inhibition of the control radioligand specific binding, from which the Ki was calculated. Data were analyzed using software developed at Cerep (Hill software) and validated by comparison with data generated by the commercial software SigmaPlot®4.0 for Windows® (© 1997 by SPSS Inc.). The inhibition constant, Ki, was calculated using the Cheng Prusoff equation:
where L=concentration of ligand in the assay, and Kd=affinity of the ligand for the receptor. The standard reference compound was methoctramine, which was tested in each experiment at several concentrations to obtain a competition curve from which its IC50 was calculated.

OCI-AML3 cells = assay: Proliferation assay, OCI-AML3 (CellTiter-Glo, 7 days); type: cell-based, human
How it was run: as §1

Row | IC50 (MV4;11 cells; Homo sapiens, MV4-11, 168 h) [nM] | Ki (muscarinic M2 receptor) [nM] | SMILES | IC50 (HEL cells; Homo sapiens, HEL, 168 h) [nM] | other results
1 | 20 | 100 | COCCN(C)CCC[C@H](C(C)C)N1CCC(C(=O)c2cn(-c3ccc(F)cc3C(=O)N(C(C)C)C(C)C)c3cnccc23)CC1 (racemic) [Example 23, rac-(R)-5-Fluoro-N,N-diisopropyl-2-(3-(1-(6-((2-methoxyethyl)(methyl)amino)-2-methylhexan-3-yl)piperidine-4-carbonyl)-1H-pyrrolo[2,3-c]pyridin-1-yl)benzamide] | > 10000 | 
2 |  |  | CCN(C(=O)c1cc(F)ccc1-n1c(C)c(C(=O)C2CCN(C(=O)[C@H]3NC[C@@H]4C[C@@H]43)CC2)c2ccncc21)C(C)C (single isomer, unassigned) [Example 48-1] |  | IC50 (HEL cells): > 10000 nM
3 |  |  | Cc1c(C(=O)C2CCN(C(=O)[C@H]3NC[C@@H]4C[C@@H]43)CC2)c2ccncc2n1-c1ccc(F)cc1C(=O)N(CC(F)(F)F)C(C)C (single isomer, unassigned) [Example 51-1] | > 10000 | 
4 |  |  | CCN(C(=O)c1cc(F)ccc1-n1c(C)c(C(=O)[C@@H]2CCN(C(=O)[C@@H]3CCC4(CC4)N3)[C@@H](C)C2)c2ccncc21)C(C)C (single isomer, unassigned) [Example 52-1, N-Ethyl-5-fluoro-N-isopropyl-2-(2-methyl-3-((2R*,4S*)-2-methyl-1-((S)-4-azaspiro[2.4]heptane-5-carbonyl)piperidine-4-carbonyl)-1H-pyrrolo[2,3-c]pyridin-1-yl)benzamide] |  | IC50 (MV4;11 cells): 22 nM; IC50 (OCI-AML3 cells): 40 nM
5 |  |  | CCN(C(=O)c1cc(F)ccc1-n1c(C)c(C(=O)[C@@H]2CCN(C(=O)[C@@H]3CCC4(CC4)N3)[C@@H](C)C2)c2ccncc21)C(C)C (single isomer, unassigned) [Example 52-2, N-Ethyl-5-fluoro-N-isopropyl-2-(2-methyl-3-((2R*,4S*)-2-methyl-1-((S)-4-azaspiro[2.4]heptane-5-carbonyl)piperidine-4-carbonyl)-1H-pyrrolo[2,3-c]pyridin-1-yl)benzamide] | > 10000 | IC50 (MV4;11 cells): 56 nM; IC50 (OCI-AML3 cells): 82 nM
6 |  | 3800 | Cc1c(C(=O)C2CCN(C(=O)[C@H]3NC[C@@H]4C[C@@H]43)CC2)c2ccncc2n1-c1ccc(F)cc1C(=O)N(C(C)C)C(C)C (single isomer, unassigned) [Example 55-1] | > 10000 | IC50 (MV4;11 cells): 1720 nM
7 |  |  | Cc1c(C(=O)[C@@H]2CCN(C(=O)[C@@H]3CC[C@H](C)N3)[C@@H](C)C2)c2ccncc2n1-c1ccc(F)cc1C(=O)N(C(C)C)C(C)C (stereo in doubt) [Example 62, 5-Fluoro-N,N-diisopropyl-2-(2-methyl-3-((2S,4RS)-2-methyl-1-((2S,5S)-5-methylpyrrolidine-2-carbonyl)piperidine-4-carbonyl)-1H-pyrrolo[2,3-c]pyridin-1-yl)benzamide] | > 10000 | 
8 |  |  | CCN(C(=O)c1cc(F)ccc1-n1c(C)c(C(=O)[C@@H]2CCN(C(=O)[C@@H]3CC[C@H](C)N3)[C@@H](C)C2)c2ccncc21)C(C)C (stereo in doubt) [Example 63, N-Ethyl-5-fluoro-N-isopropyl-2-(2-methyl-3-((2S,4RS)-2-methyl-1-((2S,5S)-5-methylpyrrolidine-2-carbonyl)piperidine-4-carbonyl)-1H-pyrrolo[2,3-c]pyridine-1-yl)benzamide] | > 10000 | 
9 |  |  | Cc1c(C(=O)[C@@H]2CCN(C(=O)[C@@H]3CC[C@@H](C)N3)[C@@H](C)C2)c2ccncc2n1-c1ccc(F)cc1C(=O)N(C(C)C)C(C)C (stereo in doubt) [Example 64, 5-Fluoro-N,N-diisopropyl-2-(2-methyl-3-((2S,4RS)-2-methyl-1-((2S,5R)-5-methylpyrrolidine-2-carbonyl)piperidine-4-carbonyl)-1H-pyrrolo[2,3-c]pyridin-1-yl)benzamide] | > 10000 | IC50 (OCI-AML3 cells; Homo sapiens, OCI-AML-3, 168 h): 313 nM
10 |  |  | CCN(C(=O)c1cc(F)ccc1-n1c(C)c(C(=O)[C@@H]2CCN(C(=O)[C@@H]3CC[C@@H](C)N3)[C@@H](C)C2)c2ccncc21)C(C)C (stereo in doubt) [Example 65, N-Ethyl-5-fluoro-N-isopropyl-2-(2-methyl-3-((2S,4RS)-2-methyl-1-((2S,5R)-5-methylpyrrolidine-2-carbonyl)piperidine-4-carbonyl)-1H-pyrrolo[2,3-c]pyridin-1-yl)benzamide] | > 10000 | IC50 (OCI-AML3 cells; Homo sapiens, OCI-AML-3, 168 h): 126 nM
11 | 99 |  | CC(C)N(C(=O)c1cc(F)ccc1-n1cc(C(=O)[C@@H]2CCN(C(=O)[C@H]3N[C@@H]4CC[C@H]3C4)C2)c2ccncc21)C(C)C [Example 3, 2-(3-((R)-1-((1R,3S,4S)-2-Azabicyclo[2.2.1]heptane-3-carbonyl)pyrrolidine-3-carbonyl)-1H-pyrrolo[2,3-c]pyridin-1-yl)-5-fluoro-N,N-diisopropylbenzamide] | > 10000 | IC50 (OCI-AML3 cells; Homo sapiens, OCI-AML-3, 168 h): 113 nM
12 | 46 | 2300 | CC(C)N(C(=O)c1cc(F)ccc1-n1cc(C(=O)C2CN(C(=O)[C@H]3NC4CCC3CC4)C2)c2ccncc21)C(C)C [Example 6, (S)-2-(3-(1-(2-Azabicyclo[2.2.2]octane-3-carbonyl)azetidine-3-carbonyl)-1H-pyrrolo[2,3-c]pyridin-1-yl)-5-fluoro-N,N-diisopropylbenzamide] | > 10000 | 
13 |  | 6900 | CC(C)c1ncsc1-c1cc(F)ccc1-n1cc(C(=O)C2CN(C(=O)[C@H]3N[C@@H]4CC[C@H]3C4)C2)c2ccncc21.O=CO [Example 12, (1-((1R,3S,4S)-2-Azabicyclo[2.2.1]heptane-3-carbonyl)azetidin-3-yl)(1-(4-fluoro-2-(4-isopropylthiazol-5-yl)phenyl)-1H-pyrrolo[2,3-c]pyridin-3-yl)methanone 1·formic acid] | > 10000 | 
14 | 44 | 1000 | C=C1C[C@@H]2CC[C@H]1[C@@H](C(=O)N1CCC(C(=O)c3cn(-c4ccc(F)cc4C(=O)N(C(C)C)C(C)C)c4cnccc34)CC1)N2 [Example 18, 5-Fluoro-N,N-diisopropyl-2-(3-(1-((1S,3S,4R)-5-methylene-2-azabicyclo[2.2.2]-octane-3-carbonyl)piperidine-4-carbonyl)-1H-pyrrolo[2,3-c]pyridin-1-yl)benzamide] | > 10000 | 
15 | 27 | 500 | CC(C)N(C(=O)c1cc(F)ccc1-n1cc(C(=O)C2CCN(C(=O)[C@H]3NC[C@@H]4CCC[C@@H]43)CC2)c2ccncc21)C(C)C [Example 21, 5-Fluoro-N,N-diisopropyl-2-(3-(1-((1S,3αR,6αS)-octahydrocyclopenta[c]pyrrole-1-carbonyl)piperidine-4-carbonyl)-1H-pyrrolo[2,3-c]pyridin-1-yl)benzamide] | > 10000 | 
16 | 17 | 700 | CC(C)N(C(=O)c1cc(F)ccc1-n1cc(C(=O)C2CCN(C(=O)[C@H]3N[C@H]4C[C@@H]3[C@@H](F)C4)CC2)c2ccncc21)C(C)C [Example 22, 5-Fluoro-2-(3-(1-((1S,3S,4S,5S)-5-fluoro-2-azabicyclo[2.2.1]heptane-3-carbonyl)piperidine-4-carbonyl)-1H-pyrrolo[2,3-c]pyridin-1-yl)-N,N-diisopropylbenzamide] | > 10000 | 
17 | 39 |  | C[C@@H]1COC[C@@H](C)N1C(=O)c1cc(F)ccc1-n1cc(C(=O)C2CCN(C(=O)[C@H]3N[C@@H]4CC[C@H]3C4)CC2)c2ccncc21 [Example 34, (1-((1R,3S,4S)-2-Azabicyclo[2.2.1]heptane-3-carbonyl)piperidin-4-yl)(1-(2-((3R,5R)-3,5-dimethylmorpholine-4-carbonyl)-4-fluorophenyl)-1H-pyrrolo[2,3-c]pyridin-3-yl)methanone] | > 10000 | 
18 | 37 |  | O=C(c1cn(-c2ccc(F)cc2-c2cncnc2C2CC2)c2cnccc12)C1CCN(C(=O)[C@H]2N[C@@H]3CC[C@H]2C3)CC1 [Example 40, (1-((1R,3S,4S)-2-Azabicyclo[2.2.1]heptane-3-carbonyl)piperidin-4-yl)(1-(2-(4-cyclopropylpyrimidin-5-yl)-4-fluorophenyl)-1H-pyrrolo[2,3-c]pyridin-3-yl)methanone] | > 10000 | 
19 |  | 100 | CC(C)c1ccncc1-c1cc(F)ccc1-n1cc(C(=O)C2CCN(C(=O)[C@H]3N[C@@H]4CC[C@H]3C4)CC2)c2ccncc21 [Example 41, (1-((1R,3S,4S)-2-Azabicyclo[2.2.1]heptane-3-carbonyl)piperidin-4-yl)(1-(4-fluoro-2-(4-isopropylpyridin-3-yl)phenyl)-1H-pyrrolo[2,3-c]pyridin-3-yl)methanone] | > 10000 | 

Row | SMILES | IC50 (MV4;11 cells; Homo sapiens, MV4-11, 168 h) [nM] | Ki (muscarinic M2 receptor) [nM] | IC50 (HEL cells; Homo sapiens, HEL, 168 h) [nM] | other results
20 | Cc1c(C(=O)C2CCN(C(=O)[C@@H]3CCC(C)(C)N3)CC2)c2ccncc2n1-c1ccc(F)cc1C(=O)N(C(C)C)C(C)C (single isomer, unassigned) [Example 56-1] |  | 7400 | > 10000 | 
